The source of these data is ChEMBL document CHEMBL1201862, “PubChem BioAssay data set” (2004).

Test systems include A549; HCT-15; HOP-92; M14; MDA-MB-435; MDA-N; MOLT-4; Malme-3M; NCI/ADR-RES; OVCAR-3; OVCAR-4; OVCAR-8; RXF 393; SF-295; SF-539; SK-MEL-28; SK-MEL-5; SN12C; SNB-19; HCC 2998.
Common to all, as to test: NCI anticancer screen, dose series, 48 h

Counter-ions that a name gives are not always drawn.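 Five concentrations, 48 hours, 96-well plates. GI50: concentration for 50% inhibition of growth.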 Active and inactive are the calls of the source. Cut-off read from the data, not from the text of the source: active = GI50 up to about 1.1 µM and inactive = higher.

Take `O=C(Nc1sccc1S(=O)(=O)c1ccc(Cl)cc1)c1ccccc1`: the GI50 was > 100 µM (inactive) with A549; over 100 µM in the test on HCT-15; > 100 µM (inactive) with HOP-92; > 100 µM (inactive) in the test with M14; > 100 µM (inactive) in the test on MDA-MB-435; > 100 µM (inactive) in the test with MDA-N. The GI50 in the test on MOLT-4 was > 100 µM (inactive); in the test on Malme-3M, > 100 µM (inactive); in the test with NCI/ADR-RES, > 100 µM (inactive); in the test on OVCAR-3, > 100 µM (inactive); in the test on OVCAR-4, 45 µM (inactive); with OVCAR-8 it was > 100 µM (inactive). The GI50 with RXF 393 was > 100 µM (inactive); with SF-295 it was > 100 µM (inactive); in the test with SF-539, 60.1 µM (inactive); in the test with SK-MEL-28, > 100 µM (inactive); with SK-MEL-5, > 100 µM (inactive); in the test on SN12C, > 100 µM (inactive). Also, in the test with SNB-19, the GI50 was > 100 µM (inactive).
`CN(C)CCOc1ccc(/C(=C(/CCCl)c2ccccc2)c2ccccc2)cc1` [TOREMIFENE CITRATE]: the GI50 with A549 is 16.3 µM (inactive); in the test with HCC 2998 it was 5.16 µM (inactive); in the test on HCT-15, 14.7 µM; with HOP-92 it was 3.67 µM (inactive); in the test on M14, 14.1 µM (inactive); in the test with MDA-MB-435, 17.4 µM (inactive). In addition, the GI50 in the test on MDA-N is 16.4 µM (inactive); in the test on MOLT-4, 18.7 µM (inactive); in the test with Malme-3M, 17.9 µM (inactive); in the test on NCI/ADR-RES it was 13.7 µM (inactive); with OVCAR-3, 11.9 µM (inactive); with OVCAR-4, 17.3 µM (inactive). In addition, the GI50 was 17.7 µM (inactive) in the test on OVCAR-8; 15 µM (inactive) in the test on SF-295; 16.2 µM (inactive) in the test on SF-539; 16 µM (inactive) in the test on SK-MEL-28; 16 µM (inactive) in the test on SK-MEL-5; 16.7 µM (inactive) in the test on SN12C. Moreover, the GI50 in the test with SNB-19 was 15 µM (inactive).
Turning to `CCCCCCCCCCCCn1c(=O)cc(NCCCC)c2cc3c(NCCCC)cc(=O)n(CCCCCCCCCCCC)c3nc21`, the GI50 with A549 is > 100 µM (inactive); in the test on HCC 2998, > 100 µM (inactive); in the test with HCT-15, over 100 µM; in the test on HOP-92, > 100 µM (inactive); in the test with M14, > 100 µM (inactive); in the test on MDA-MB-435, > 100 µM (inactive). In addition, the GI50 in the test on MDA-N, with MOLT-4, in the test with Malme-3M, with NCI/ADR-RES, with OVCAR-3 and with OVCAR-4 was > 100 µM (inactive) each time. For the same compound, the GI50 in the test with SF-295, in the test on SK-MEL-28, in the test on SK-MEL-5, in the test on SN12C and with SNB-19 was > 100 µM (inactive) in each case.
As to `COc1cc(C2SCC(=O)N2c2cccc(Cl)c2)cc(OC)c1OC` (stereo unspecified), the GI50 with A549 is > 100 µM (inactive); in the test with HCC 2998, > 100 µM (inactive); in the test on HCT-15 it was 72.3 µM; in the test with HOP-92, 31.2 µM (inactive); with M14 it was 84.9 µM (inactive); in the test on MDA-MB-435, 29.5 µM (inactive). The GI50 with MDA-N is 17.2 µM (inactive); in the test on MOLT-4, 37.2 µM (inactive); in the test on NCI/ADR-RES, 71.9 µM (inactive); in the test on OVCAR-4, 54.6 µM (inactive); in the test on OVCAR-8, > 100 µM (inactive); in the test on SF-295 it was 43.7 µM (inactive). Besides, the GI50 was > 100 µM (inactive) with SF-539; > 100 µM (inactive) with SK-MEL-28; > 100 µM (inactive) in the test on SK-MEL-5; 56.9 µM (inactive) with SN12C; 11.4 µM (inactive) in the test with SNB-19.
Consider `Oc1ccc(-c2nc(-c3cccnc3)c(-c3ccc(Cl)cc3)[nH]2)cc1`, for which the GI50 in the test with A549 is 15.3 µM (inactive); in the test with HCC 2998 it was 18.8 µM (inactive); in the test on HCT-15, 12.1 µM; in the test with M14, 13.1 µM (inactive); with MDA-MB-435, 12.3 µM (inactive); with MDA-N, 12.6 µM (inactive). Moreover, the GI50 in the test with MOLT-4 is 2.52 µM (inactive); in the test on Malme-3M, 13.5 µM (inactive); in the test with NCI/ADR-RES, 14.5 µM (inactive); with OVCAR-3, 12.5 µM (inactive); with OVCAR-4, 11.2 µM (inactive); in the test on OVCAR-8, 14.8 µM (inactive). The GI50 in the test on RXF 393 is 13.3 µM (inactive); in the test on SF-295 it was 14 µM (inactive); with SK-MEL-28, 16 µM (inactive); in the test with SK-MEL-5, 12.1 µM (inactive); in the test with SN12C it was 15.8 µM (inactive); with SNB-19, 16.5 µM (inactive).
Regarding `C[N+]1(C)CCc2cc(O)c(O)cc2C1Cc1ccc(O)c(O)c1` (stereo unspecified), the GI50 in the test on A549 was > 100 µM (inactive); in the test on HCT-15 it was 36 µM; in the test on HOP-92 it was 27.1 µM (inactive); in the test with M14 it was 92.7 µM (inactive); with MDA-MB-435, 20.2 µM (inactive); in the test with MDA-N it was 32.2 µM (inactive). The GI50 with MOLT-4 was 23 µM (inactive); in the test on Malme-3M, 32.1 µM (inactive); with NCI/ADR-RES, 79.4 µM (inactive); in the test on OVCAR-3 it was 69 µM (inactive); in the test with OVCAR-4 it was 22.1 µM (inactive); in the test on OVCAR-8 it was 35.2 µM (inactive). Further, the GI50 with RXF 393 is 39.9 µM (inactive); with SF-295, > 100 µM (inactive); in the test with SF-539 it was 50.4 µM (inactive); in the test on SK-MEL-28, 99.8 µM (inactive); in the test on SK-MEL-5, 48.2 µM (inactive); in the test with SN12C it was 38.2 µM (inactive). Moreover, the GI50 in the test on SNB-19 was > 100 µM (inactive).
Turning to `O=C(O)c1nn[nH]c1Cl`, the GI50 with A549 was > 100 µM (inactive); in the test on HCC 2998, > 100 µM (inactive); in the test on HCT-15, over 100 µM; in the test on M14, > 100 µM (inactive); in the test with MDA-MB-435, > 100 µM (inactive); in the test with MDA-N, > 100 µM (inactive). In addition, the GI50 with MOLT-4 was > 10 µM (inactive); in the test on Malme-3M, > 100 µM (inactive); in the test with NCI/ADR-RES it was > 100 µM (inactive); in the test with OVCAR-3 it was > 100 µM (inactive); in the test with OVCAR-4 it was > 100 µM (inactive); with OVCAR-8, > 100 µM (inactive). Also, the GI50 in the test on RXF 393, with SF-295, in the test on SF-539, in the test with SK-MEL-28, in the test with SK-MEL-5 and in the test with SN12C was > 100 µM (inactive) throughout.
Turning to `COC(=O)[C@H](COC(C)(C)C)NC(=O)N[C@H](C)c1ccccc1`, the GI50 in the test with A549 was > 100 µM (inactive); with HCC 2998 it was > 100 µM (inactive); in the test with HCT-15 it was over 100 µM; with HOP-92, > 100 µM (inactive); with M14, > 100 µM (inactive); with MDA-MB-435 it was > 100 µM (inactive). Further, the GI50 in the test on MDA-N, in the test on MOLT-4, in the test with NCI/ADR-RES, with OVCAR-3, in the test on OVCAR-4 and in the test with OVCAR-8 was > 100 µM (inactive) each time. Moreover, the GI50 in the test on SF-295, in the test on SF-539, in the test on SK-MEL-28, with SK-MEL-5, with SN12C and in the test on SNB-19 was > 100 µM (inactive) each time.
With `Cn1c(=O)c2[nH]c(N=O)nc2n(C)c1=O`, the GI50 in the test on A549 is > 100 µM (inactive); with HCC 2998, > 100 µM (inactive); with HCT-15 it was over 100 µM; with M14 it was > 100 µM (inactive); in the test with MDA-MB-435, > 100 µM (inactive); with MDA-N, > 100 µM (inactive). The GI50 in the test on MOLT-4, in the test on Malme-3M, with NCI/ADR-RES, in the test on OVCAR-3, in the test with OVCAR-4 and in the test on OVCAR-8 was > 100 µM (inactive) each time. Besides, the GI50 with RXF 393, with SF-295, with SF-539, in the test with SK-MEL-28 and with SN12C was > 100 µM (inactive) in each case.
As to `COc1ccc(/C=C(/C#N)C(N)=O)c(OC)c1`, the GI50 in the test with A549 is > 100 µM (inactive); in the test with HCT-15 it was 60.8 µM; with HOP-92, 36.4 µM (inactive); with M14, 41.3 µM (inactive); in the test on MDA-MB-435, 23.5 µM (inactive); in the test on MDA-N it was 19.3 µM (inactive). Also, the GI50 in the test on MOLT-4, in the test with NCI/ADR-RES, with OVCAR-3, in the test on OVCAR-4, in the test with OVCAR-8 and in the test on RXF 393 was > 100 µM (inactive) throughout. The GI50 with SF-295 was 82.8 µM (inactive); in the test on SF-539 it was > 100 µM (inactive); with SK-MEL-28 it was > 100 µM (inactive); in the test with SK-MEL-5, 50.9 µM (inactive); with SN12C, > 100 µM (inactive); in the test with SNB-19 it was > 100 µM (inactive).
With `Cn1c(=O)oc2cc(C(=S)N3CCC(Cc4ccccc4)CC3)ccc21`, the GI50 with HCT-15 was over 100 µM; in the test with M14, > 100 µM (inactive); with MDA-MB-435, 91.8 µM (inactive); in the test with MDA-N, > 100 µM (inactive); in the test on MOLT-4 it was 48.1 µM (inactive); with Malme-3M, > 100 µM (inactive). In addition, the GI50 in the test on NCI/ADR-RES, in the test with OVCAR-3, in the test with OVCAR-8, in the test with RXF 393, with SF-295 and with SF-539 was > 100 µM (inactive) each time. Further, the GI50 was > 100 µM (inactive) in the test with SK-MEL-28, 51.4 µM (inactive) in the test with SK-MEL-5, > 100 µM (inactive) in the test on SN12C and > 100 µM (inactive) with SNB-19.
